Results: US10196417B2, “Baicalin magnesium compound and its preparation method and application” (CHENGDE MEDICAL UNIVERSITY, priority 2016, dated 2019)
Marks after values point to notes of the source that are not given here.

Tests used:
[1] = Pharmacokinetic experiments (no data given); assay type: in vivo; details: in words only
[2] = tested on: streptozotocin-induced diabetes rats (high-fat diet); experiment: Antidiabetic effect: blood glucose in streptozotocin-induced diabetes; assay type: in vivo, SD male rats; details: 80 mg/kg baicalin or equivalent intragastric daily
Method: Healthy SD male rats aged 6 to 8 weeks were randomly divided into 4 groups, a high-fat diet control group, a diabetes control group, a baicalin treatment group and a baicalin magnesium treatment group. The rats were raised for 1 week in advance. In the second week, all rats were fed with high-fat diet. After six weeks, the rats were fasted but with water for 12 hours. For the diabetes control group, the baicalin treatment group and the baicalin magnesium treatment group, rats were administrated by tail vein injection with 45 mg/kg of streptozotocin prepared from citrate buffer solution (pH=4.5). After 3 to 7 days, the fasting blood glucose was measured. The blood glucose level greater than 13 mmol/L was a criterion for the successful diabetes rate model. The rats in the high-fat diet control group were administrated by tail vein injection with the citrate buffer solution. After the model was built, the rats were intragastrically administrated in the morning every day. The rats in the baicalin group were administrated with baicalin at a dose of 80 mg/kg; the rates in the […] were administrated with baicalin magnesium at a dose equivalent to 80 mg/kg of baicalin; and the rats in the diabetes model group and the high-fat diet control group were intragastrically administrated the same volume of solvent once every day and for successive 6 weeks. After the molding and the administration, the blood glucose was measured in the third week and the sixth week. Single-factor variance analysis was performed on data by SPSS19.0 statistical software, and P<0.05 was of statistical significance.

[3] = tested on: Human liver cancer HepG2 cells; experiment: Anti-tumor activity: apoptosis of HepG2 cells by flow cytometry; assay type: cell-based; details: 48 hours
Method: Human liver cancer HepG2 cells were prepared and then cultured in an incubator containing 5% of CO2 at 37° C. using a DMEN culture medium containing 10% of fetal bovine serum, penicillin (100 μmol·L^−1) and streptomycin (1 mg·mL^−1). HepG2 cells in logarithmic phase were diluted with RPMI-1640 culture medium containing 10% of fetal bovine serum to a concentration of 1×10^4 per mL; then inoculated into a 96-well plate at 100 μL per well; and then cultured in an incubator having a relative humidity of 90% and 5% of CO2 at 37° C. The culture medium was discarded after the HepG2 cells were cultured for 24 hours. The culture medium containing baicalin and baicalin magnesium (equivalent to the concentration of baicalin (5 μg/mL, 10 μg/mL and 20 μg/mL)) were added in wells respectively with each concentration in four parallel wells. And at the same time, wells having culture medium without cells were used as a blank control group, and wells having cells without drug were used as a negative control group. The groups were continuously cultured for 48 hours to collect the cells. The cells were washed with PBS solution 2 times, and detected with a flow cytometer by FACS for parameter acquisition and data analysis.

[4] = tested on: mice with cerebral ischemia; experiment: Learning and memory function in mice with cerebral ischemia (water maze test); assay type: in vivo; details: i.p. 12.5 mg/kg baicalin or equivalent for 12 days after carotid clipping 20 min
Method: 80 healthy mice were randomly divided into 4 groups each having 20 mice, a model group, a sham-operation group, a baicalin group and a baicalin magnesium group. For the model group, mice were intraperitoneally injected with 1% of pentobarbital sodium for anesthesia, and then the left and right common carotid arteries were exposed and separated. The left and right arteries were immediately clipped with a vessel clamp for 20 minutes. The vessel clamp then were released; arteries were sutured; and the mice were put back in the cage for breeding. For the sham-operation group, the left and right common carotid arteries were exposed by the same method as above but without clipping. The left and right arteries were sutured, and the mice were put back in the cage for breeding. For the baicalin group, the operation was the same as that for the model group, and on the second day after the operation the mice were intraperitoneally injected with 12.5 mg/kg of baicalin for successive 12 days. For the baicalin magnesium group, the operation was the same as that for the model group, and on the second day after the operation the mice were intraperitoneally injected with baicalin magnesium (at a dose equivalent to 12.5 mg/kg of baicalin) for successive 12 days. The mice in the sham-operation group and the model group were administrated with the same volume of normal saline. Water Maze Test: a circular water tank for test was 120 cm in diameter and 60 cm in height; a cylindrical platform was 10 cm in diameter and 40 cm in height; and an interior of the circular water tank was black. A camera connected to a display was provided to record the movement of mice. During the test, the water depth was 12 cm, and the water temperature was (25±2) ° C. All space signs around the maze remained unchanged throughout the test. Water Maze Test for Memory: on the day before the beginning of the test, each of mice were familiar with the water environment in the maze for 2 minutes. The mice were randomly placed in water close to walls of maze from four different quadrants (North, West, South and East, in one period of time), and the time from the mice entering water to climbing on the platform was recorded as an escape latency. […] The mice were continuously trained for 15 days at a frequency of two times of training per day. Each group of animals was subjected to a water maze test in turn. The path on the first day had two blind ends; the path on the second day had three blind ends; and the path on the third day, the fourth day and the fifth day had four blind ends. The mice were placed in water toward the walls, and the time from the mice entering water to arriving at the platform (latency) and the number of entering the blind ends were recorded. […]

[5] = 0 (after the molding, start of administration)
[6] = HepG2, 5 μg/mL (baicalin equivalent)
[7] = HepG2, 10 μg/mL (baicalin equivalent)
[8] = HepG2, 20 μg/mL (baicalin equivalent)

For O=C(O)C1O[C@@H](Oc2cc3oc(-c4ccccc4)cc(=O)c3c(O)c2O)C(O)[C@@H](O)[C@@H]1O (some centres unmarked) [Baicalin Magnesium, baicalin magnesium], the “Adsorption rate compared to baicalin” value [1] was “faster adsorption rate”, the “Blood Glucose” value [2, 5] was 22.32 ± 2.23 mmol/L and the “Blood Glucose” value ([2]; 3 weeks) was 19.46 ± 3.59*^Δ# mmol/L. For the same molecule, the “Blood Glucose” value ([2]; 6 weeks) was 17.58 ± 2.6*^Δ# mmol/L, the Apoptosis % [3, 6] was 11.67 ± 0.65 % and the Apoptosis % [3, 7] was 23.67 ± 5.21 %. For the same molecule, the Apoptosis % [3, 8] was 33.12 ± 1.58*^Δ %, the “Escape Latency” value [4] was 26.54 ± 8.34*^Δ s and the “Number of Errors” value [4] was 3.82 ± 2.12*^Δ.
With O=C(O)[C@H]1O[C@@H](Oc2cc3oc(-c4ccccc4)cc(=O)c3c(O)c2O)[C@H](O)[C@@H](O)[C@@H]1O [Baicalin] the “Blood Glucose” value [2, 5] was 23.54 ± 2.5 mmol/L, the “Blood Glucose” value ([2]; 3 weeks) was 21.45 ± 2.6 mmol/L and the “Blood Glucose” value ([2]; 6 weeks) was 20.14 ± 2.6 mmol/L. The Apoptosis % [3, 6] was 9.57 ± 0.56 %, the Apoptosis % [3, 7] was 21.45 ± 1.67 % and the Apoptosis % [3, 8] was 30.67 ± 3.45 %. For the same molecule, the “Escape Latency” value [4] was 38.88 ± 11.99 s and the “Number of Errors” value [4] was 4.56 ± 3.78.
